Test system: plasma kallikrein
Assay: Inhibition of the production of plasma kallikrein (kaolin-activated plasma, synthetic substrate)
Type: biochemical
Settings: normal human plasma, kaolin activation, substrate D-Pro-Phe-Arg-p-nitroaniline
Description: The inhibitory action of the physiologically-active substance against the production of plasma kallikrein was measured according to a method described in Kiso to Rinsho, vol. 20, no. 17, pages 399-405 (1986).
Thus, a suspension of kaolin was added to normal human plasma diluted with a physiologically saline solution. A lima bean trypsin inhibitor was added thereto after a certain period to stop the kallikrein procluction reaction. Then the resulting kallikrein was determined by using a synthetic substrate (D-Pro-Phe-Arg-p-nitroaniline). The test substance was placed in the above system whereby the inhibitory action of the test substance against the production of kallikrein was determined.
In Table 1 the potency of the activity is given in terms of the concentration (IC50) at which the production of the plasma kallikrein was inhibited to an extent of 50%: […]

Compound	IC50, concentration at which the production of the plasma kallikrein was inhibited to an extent of 50%
CC(C)=CCN1CCC2(C)c3cc(O)ccc3CC1C2C (stereo not drawn) [Pentazocine]	1,600 micrograms/ml
CC(C)Cc1ccc(C(C)C(=O)O)cc1 (stereo not drawn) [Ibuprofen]	700 micrograms/ml
CC(C(=O)O)c1cccc(C(=O)c2ccccc2)c1 (stereo not drawn) [Ketoprofen]	400 micrograms/ml

Source: patent US5560935A, “Physiologically active substances extracted from activated tissues” (Nippon Zoki Pharmaceutical Co., Ltd., priority 1993, dated 1996)
